Patent US8765054B2, “Process for treatment of residual nucleic acids present on the surface of laboratory consumables” (EMD Millipore Corporation, priority 2010, dated 2014)

Legend:
[1] = system: Germs (E. coli, P. aeruginosa); assay: Residual DNA contained in microorganisms (germs) on tubes after treatment, determined by PCR; format: cell-based
Experimental: (§1) Several consumables consisting of 1.5 ml polypropylene tubes were contaminated in parallel with a known quantity of DNA, RNA or microorganisms. These consumables were then gamma-sterilized (doses from 0 to 60 kGy) or treated with ethylene oxide in gaseous phase. After sterilization, the presence of residual nucleic acids is determined by PCR (for DNA) and TMA (for RNA) and compared with an unsterilized control consumable.
(§2) Several consumables of the same type as those used in protocol 1 were contaminated with the same known quantity of DNA, RNA or microorganisms. These consumables were then treated by a treatment with hydrogen peroxide made in liquid solution (respectively 3% and 30% H2O2). The hydrogen peroxide is evaporated at the end of the process by virtue of a step of drying under vacuum at a temperature of 60° C. After treatment, the presence of residual nucleic acids was determined by PCR (for DNA) and TMA (for RNA) and compared with an untreated sample.
(§3) Several consumables of the same type as those used in protocol 1 were contaminated with the same known quantity of DNA, RNA or microorganisms. A proportion of those consumables was then treated according to the invention with gaseous ethylene oxide followed by the 3% or 30% hydrogen peroxide. A further proportion was treated with gamma radiation instead of with the gaseous ethylene oxide then with hydrogen peroxide. In both cases, the hydrogen peroxide was evaporated by virtue of a vacuum drying step at a temperature of 60° C. After treatment, the presence of residual nucleic acids was determined by PCR (for DNA) and TMA (for RNA) and compared with an untreated sample.

[2] = system: Germs (P. acnes, P. aeruginosa); assay: Residual RNA contained in microorganisms (germs) on tubes after treatment, determined by TMA; format: cell-based
Experimental: as §1, §2, §3

[3] = system: RNA (P. acnes, P. aeruginosa); assay: Residual free RNA on 1.5 ml polypropylene tubes after treatment, determined by TMA; design: key to the marks not given beside the values
Experimental: as §1, §2

[4] = system: DNA (E. coli, P. aeruginosa); assay: Residual free DNA on 1.5 ml polypropylene tubes after treatment, determined by PCR
Experimental: as §1, §2

[5] = Protocol 2, liquid H2O2, minimum time of action 40 min at 60° C.

SMILES | Effectiveness of the residual nucleic acid treatment, Germs (PCR) ([1]; Protocol 1, DNA in microorganisms, E. coli, P. aeruginosa) | Effectiveness of the residual nucleic acid treatment, Germs (TMA) ([2]; Protocol 1, RNA in microorganisms, P. acnes, P. aeruginosa) | Effectiveness of the residual nucleic acid treatment, RNA (TMA) ([3]; Protocol 1, free RNA, P. acnes, P. aeruginosa, vs unsterilized control) | Effectiveness of the residual nucleic acid treatment, DNA (PCR) ([4]; Protocol 1, free DNA, E. coli, P. aeruginosa, vs unsterilized control) | Effectiveness of the residual nucleic acid treatment, Germs (PCR) [1, 5] | Effectiveness of the residual nucleic acid treatment, Germs (TMA) [2, 5] | Effectiveness of the residual nucleic acid treatment, RNA (TMA) [3, 5] | Effectiveness of the residual nucleic acid treatment, DNA (PCR) [4, 5]
C1CO1 [EO, ethylene oxide] | + | − | +++ | + |  |  |  | 
OO [H2O2 3%, hydrogen peroxide] |  |  |  |  | − | − | ++ | ++
OO [H2O2 30%, hydrogen peroxide] |  |  |  |  | − | − | +++ | +++
